This is an account of results in US20230348473A1, “SUBSTITUTED PYRIDINES AS PARP1 INHIBITORS” (Xinthera, Inc., priority 2022, published 2023).

The nature of series [1]: HLM metabolic stability, predicted human hepatic clearance. Format: in vitro ADME. The conditions noted are these: well-stirred model, 1 μM. On the procedure: Working stocks of individual test articles were prepared at a concentration of 100 μM by diluting 10 mM stocks prepared in DMSO 100-fold (v:v) into ACN. Thawed hepatic microsomes were suspended in 100 mM potassium phosphate buffer, pH 7.4 to a microsomal protein concentration of 0.562 mg/mL. Diluted microsomes were combined with a solution of 10 mM NADPH, and the mixture was pre-warmed to 37° C. for 8 min. Reactions were initiated by addition of the test article working stocks to achieve a final test article concentration of 1 μM. Final microsomal protein and NADPH concentrations were 0.5 mg/mL and 1 mM, respectively. Incubations containing NADPH were run in duplicate. Test article losses mediated by non-CYP mechanisms were evaluated in a parallel set of incubations run in the absence of NADPH. Incubations lacking NADPH consisted of 1 replicate per test article. Following incubation in a 37° C. water bath, aliquots of individual reactions were quenched with cold ACN containing internal standards at […], 15-, 30-, 60-, 90-, and 120-min. Precipitated protein was pelleted via refrigerated centrifugation. Supernatants were diluted into an equal volume of pure water and mixed well prior to analysis via LC-MS/MS. In vitro intrinsic clearances (CLint) in μL/min/mg were determined for each incubation from calculated in vitro half-lives determined using a standard log-linear regression approach. In vitro CLint values were scaled up using the following physiological scaling factors: 40 mg microsomal protein/g human liver and 25.7 g human liver/kg body weight.

The nature of series [2]: Caco-2 bidirectional permeability. Type of series: in vitro ADME. The conditions noted are these: human; for Papp A→B at 2 h, 5 μM: apical-to-basolateral, read-out: Caco-2 AB; for Papp B→A at 2 h, 5 μM: basolateral-to-apical, read-out: Caco-2 BA; for efflux ratio at 2 h, 5 μM: efflux ratio Papp (B-to-A)/Papp (A-to-B). On the procedure: Following a 1-hr. equilibration period in cell culture medium maintained at 37° C. in an incubator containing a 5% CO2 atmosphere at 95% relative humidity, Corning 96-well HTS Transwell® permeable support plates were seeded with 34,300 Caco-2 cells (ATCC) per well. Following seeding, plates were cultured for 14-18 days with cell culture medium replacement every other day beginning no later than 24 hr. after plating. Monolayer barrier integrity was monitored during the culture period using transepithelial electrical resistance (TEER) measurements taken with a Millicell Epithelial Volt-Ohm system. Caco-2 monolayers were considered ready for use when the TEER value >230 ohm·cm^2. Working stocks of individual test articles were prepared at a concentration of 5 μM by diluting 1 mM stocks prepared in DMSO into 10 mM HEPES. Prior to conducting the assay, Caco-2 plates were washed twice with prewarmed 10 mM HEPES and then equilibrated in 10 mM HEPES for 30 min. at 37° C. Following equilibration, test article flux was tested bidirectionally (in both the apical-to-basolateral and basolateral-to-apical directions) by adding test article working stocks to either the apical or basolateral chambers. Blank 10 mM HEPES was added to the opposite sides. Plates were then incubated at 37° C. for 2 hours. At the end of the incubation, aliquots from both sides of each monolayer were quenched with 4 volumes of ACN containing internal standards. Following a centrifugation step, supernatants were diluted with pure water prior to analysis via LC-MS/MS.
Apparent permeability (Papp, ×10^−6 cm/s) was calculated for all transport assays using the following equation: […]
Where: Papp is apparent permeability (×10^−6 cm/s). • dQ/dt is the rate of drug transport (pmol/s). • A is the surface area of the membrane (cm^2). • D0 is the initial donor concentration (nM; pmol/cm^3).
Efflux ratio was determined by calculating the ratio of the Papp in the basolateral-to-apical direction to the Papp in the apical-to-basolateral direction using the following equation: […]
Where: Papp (B-to-A) is the apparent permeability in the basolateral-to-apical direction. • Papp (A-to-B) is the apparent permeability in the apical-to-basolateral direction.

A short description of series [3]: hHEP metabolic stability, predicted human hepatic clearance. Type of series: in vitro ADME. The conditions noted are these: well-stirred model, 1 μM. How it is done: Working stocks of individual test articles were prepared at concentrations of 100 μM by diluting 10 mM stocks prepared in DMSO 100-fold (v:v) into ACN/H2O (50/50, v:v). Human cryopreserved hepatocytes were thawed in a 37° C. water bath in <2 min., suspended in thawing media, and then centrifuged at 100×g for 10 min. Thawing media was aspirated, and pelleted hepatocytes were resuspended into incubation media at 1.5×10^6 cells/mL. Cell viability was determined using an Acridine Orange/Propidium Iodine stain, and hepatocytes were further diluted with incubation media to 0.5×10^6 viable cells/mL. Hepatocyte aliquots of 198 μL were added to wells of a 96-well plate, and test article incubations were initiated by the addition of 2 μL of 100 μM working stocks. Plates were incubated at 37° C. in a 5% CO2 atmosphere at 95% relative humidity on an orbital shaker at 300 rpm. Incubations were performed in duplicate. Following incubation, aliquots of individual reactions were terminated by addition of ACN containing internal standards at 0, 30-, 60-, 90-, 120-, and 240-min. Precipitated protein was pelleted via refrigerated centrifugation. Supernatants were diluted into an equal volume of pure water and mixed well prior to analysis via LC-MS/MS. In vitro intrinsic clearances (CLint) in μL/min/10^6 cells were determined for each incubation from calculated in vitro half-lives determined using a standard log-linear regression approach. In vitro CLint values were scaled up using the following physiological scaling factors: 99×10^6 cells/g human liver and 25.7 g human liver/kg body weight.

The next series deals with PARP2 (Homo sapiens (Human), UniProt Q9UGN5). Briefly: Biochemical fluorescence polarization (FP) assay, PARPi-FL displacement, PARP2. Format: binding. The conditions noted are these: 20 nM protein, 3 nM PARPi-FL, 4 h. On the procedure: (§1) To characterize our compounds, we utilized an assay measuring the displacement of a commercially available fluorescently labeled PARP 1/2 inhibitor (PARPi-FL, Tocris Biosciences, #6461) as exemplified in assays performed in WO2014/064149 and WO2021/013735A1. The assay was performed utilizing the following method: Compounds were dissolved in DMSO an Echo550 liquid handler was utilized to make serial dilations in the desired concentration range in Optiplate-384F plates. 100% DMSO was used for the high (with protein) and low (without protein) control samples. 20 nL of compound or DMSO alone was added to individual assay plate wells. […] The PARPi-FL was then added at a final concentration of 3 nM. The assay plate is centrifuged at 1000 rpm for 1 min and incubated for 4 h at room temperature. […] XLFit (equation 201) is used to calculate a reported IC50 for each compound.
PARP2, sequence (Q9UGN5 whole entry): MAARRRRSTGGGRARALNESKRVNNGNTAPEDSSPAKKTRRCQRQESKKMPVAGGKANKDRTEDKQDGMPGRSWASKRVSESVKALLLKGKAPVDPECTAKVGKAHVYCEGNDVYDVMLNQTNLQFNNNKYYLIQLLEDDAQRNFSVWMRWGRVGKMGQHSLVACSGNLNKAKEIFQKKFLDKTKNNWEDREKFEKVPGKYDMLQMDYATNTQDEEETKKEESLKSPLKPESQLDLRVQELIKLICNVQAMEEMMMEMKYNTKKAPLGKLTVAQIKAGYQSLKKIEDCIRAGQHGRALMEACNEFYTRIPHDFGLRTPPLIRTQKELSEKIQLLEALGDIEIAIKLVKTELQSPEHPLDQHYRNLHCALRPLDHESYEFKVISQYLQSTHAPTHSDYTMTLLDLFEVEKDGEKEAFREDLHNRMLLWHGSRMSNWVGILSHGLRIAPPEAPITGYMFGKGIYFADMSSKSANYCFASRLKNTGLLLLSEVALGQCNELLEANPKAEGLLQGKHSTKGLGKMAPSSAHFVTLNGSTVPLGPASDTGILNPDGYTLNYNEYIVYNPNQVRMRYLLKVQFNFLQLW

The target of a further series is PARP1 (Homo sapiens (Human), UniProt P09874). Briefly: Biochemical fluorescence polarization (FP) assay, PARPi-FL displacement, PARP1. Type of series: binding. The conditions noted are these: 20 nM protein, 3 nM PARPi-FL, 4 h. How it is done: as §1
PARP1, sequence (P09874 whole entry): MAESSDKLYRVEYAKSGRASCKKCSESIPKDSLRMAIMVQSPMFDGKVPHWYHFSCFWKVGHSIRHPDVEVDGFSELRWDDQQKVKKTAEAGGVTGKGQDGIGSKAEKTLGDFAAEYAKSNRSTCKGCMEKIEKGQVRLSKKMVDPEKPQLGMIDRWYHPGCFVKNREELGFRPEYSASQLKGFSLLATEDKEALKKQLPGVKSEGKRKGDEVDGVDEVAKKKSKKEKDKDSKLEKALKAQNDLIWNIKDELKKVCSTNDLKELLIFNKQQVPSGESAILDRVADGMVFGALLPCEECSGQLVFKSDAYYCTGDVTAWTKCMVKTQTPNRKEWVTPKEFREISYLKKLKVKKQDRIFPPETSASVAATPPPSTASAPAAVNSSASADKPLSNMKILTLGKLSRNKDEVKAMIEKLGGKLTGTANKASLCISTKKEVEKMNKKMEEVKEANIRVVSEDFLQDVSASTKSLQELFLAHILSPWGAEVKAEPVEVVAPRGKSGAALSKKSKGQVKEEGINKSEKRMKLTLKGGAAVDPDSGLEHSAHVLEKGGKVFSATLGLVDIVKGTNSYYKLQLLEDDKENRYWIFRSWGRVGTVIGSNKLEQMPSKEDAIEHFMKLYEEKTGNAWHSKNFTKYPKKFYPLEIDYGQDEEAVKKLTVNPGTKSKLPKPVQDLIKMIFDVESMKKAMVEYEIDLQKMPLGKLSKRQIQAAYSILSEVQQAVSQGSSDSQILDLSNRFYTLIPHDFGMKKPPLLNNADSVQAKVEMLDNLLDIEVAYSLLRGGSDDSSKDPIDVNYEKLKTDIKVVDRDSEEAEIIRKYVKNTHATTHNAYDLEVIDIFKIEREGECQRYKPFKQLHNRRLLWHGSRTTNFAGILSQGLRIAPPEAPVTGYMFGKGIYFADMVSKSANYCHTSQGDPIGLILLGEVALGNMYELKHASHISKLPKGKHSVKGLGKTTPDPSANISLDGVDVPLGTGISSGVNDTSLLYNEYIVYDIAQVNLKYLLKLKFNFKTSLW
Series [4] in a line: In vivo determination of rat Kp,uu. The conditions noted are these: male Sprague-Dawley rats, oral gavage, Kp*(fraction unbound in brain homogenate/fraction unbound in plasma). How it is done:
The equilibrium dialysis method was used to investigate the in vitro binding of test articles and reference compounds to plasma proteins. Plasma samples containing 5 μM test article or blank dialysis buffer solution (PBS, pH 7.4) were added to separate chambers of the dialysis wells of the High Throughput equilibrium Dialysis (HTD) device. The dialysis plate was sealed and placed in an incubator at 37° C. with 5% CO2 with shaking at approximately 100 rpm for 6 hours. All experiments were performed in duplicable. Ketoconazole (5 μM) was used as the reference compound. After incubation, the seal was removed, and 50 μL of post-dialysis samples were pipetted from both buffer and plasma chambers into fresh 96-well plates. Samples were equimatrilyzed by either addition of blank plasma to buffer samples or the addition of blank buffer to plasma samples. Subsequently, 400 μL (4 volumes) of acetonitrile containing internal were added to all samples to precipitate proteins prior to analysis by UPLC-MS/MS to determine the relative concentrations of test articles. The unbound fractions in plasma were calculated using the concentrations of test articles in buffer and plasma samples according to the following equation: […]
The equilibrium dialysis method was used to investigate the in vitro binding of test articles and reference compounds to rodent brain homogenate. Brains collected from naïve animals were weighed and homogenized in 4 volumes of PBS, pH 7.4. […] The unbound fractions in diluted brain homogenate were calculated using the concentrations of test articles in buffer and homogenate samples according to the following equation: […]
Prior to bioanalysis, plasma and brain samples were extracted with 4 volumes of acetonitrile containing internal standard and centrifuged for 15 minutes. […] Plasma and brain homogenate drug concentrations were determined against calibration curves generated by spiking blank rat plasma or brain homogenate with drug across an appropriate concentration range. […]

Each structure is given as a SMILES string.

Turning to `CNC(=O)c1ccc(N2CCN(Cc3ccc4c5c(c(=O)[nH]c4c3)CCO5)CC2)c(C)n1` [Comp. Ex. 1, N,6-dimethyl-5-[4-({4-oxo-2H,3H,5H-furo[3,2-c]quinolin-7-yl}methyl)piperazin-1-yl]pyridine-2-carboxamide], the “HLM Clh” value in series [1] was less than 4 mL/min/kg. For the same compound, in series [2], the Papp A→B at 2 h, 5 μM was found to be 2.5 ×10⁻⁶ cm/s and the Papp B→A at 2 h, 5 μM is 26.2 ×10⁻⁶ cm/s. Besides, in series [3], the “HHEP Clh” value is recorded as less than 3.3 mL/min/kg.

In the case of `CNC(=O)c1ccc(N2CCN(Cc3ccc4c5c(c(=O)[nH]c4c3)CCO5)CC2)c(Cl)n1` [Comp. Ex. 2, 6-chloro-N-methyl-5-[4-({4-oxo-2H,3H,5H-furo[3,2-c]quinolin-7-yl}methyl)piperazin-1-yl]pyridine-2-carboxamide], in series [1], the “HLM Clh” value is 4.2 mL/min/kg. For the same compound, in series [2], the Papp A→B at 2 h, 5 μM was determined as 2.4 ×10⁻⁶ cm/s; the Papp B→A at 2 h, 5 μM worked out at 21.9 ×10⁻⁶ cm/s; the efflux ratio at 2 h, 5 μM amounted to 9.3. In addition, the “HHEP Clh” value in series [3] is 6.6 mL/min/kg.

Consider `CNC(=O)c1ccc(N2CCN(Cc3cc(F)c4c5c(c(=O)[nH]c4c3)COC5)CC2)c(F)n1` [Comp. Ex. 3, 6-fluoro-5-(4-((9-fluoro-4-oxo-1,3,4,5-tetrahydrofuro[3,4-c]quinolin-7-yl)methyl)piperazin-1-yl)-N-methylpicolinamide], for which the “HLM Clh” value in series [1] is 7.2 mL/min/kg. Further, in series [2], the Papp A→B at 2 h, 5 μM was 0.8 ×10⁻⁶ cm/s; the Papp B→A at 2 h, 5 μM is 5.5 ×10⁻⁶ cm/s; the efflux ratio at 2 h, 5 μM was 7.3. The “HHEP Clh” value in series [3] is listed as 7.1 mL/min/kg.

As to `CNC(=O)c1ccc(N2CCN(Cc3ccc4c5c(c(=O)[nH]c4c3F)CCC5)CC2)c(F)n1` [Comp. Ex. 4], in series [1], the “HLM Clh” value is on record as 11.5 mL/min/kg. In series [2], the Papp A→B at 2 h, 5 μM was found to be 11.5 ×10⁻⁶ cm/s and the Papp B→A at 2 h, 5 μM stood at 14.5 ×10⁻⁶ cm/s. For the same compound, the “HHEP Clh” value in series [3] is listed as 14.5 mL/min/kg.

With `CNC(=O)c1ccc(N2CCN(Cc3ccc4c([nH]c(=O)c5ccnn54)c3F)CC2)c(F)n1` [Example 1, 6-fluoro-5-[4-({6-fluoro-4-oxo-5H-pyrazolo[1,5-a]quinoxalin-7-yl}methyl)piperazin-1-yl]-N-methylpyridine-2-carboxamide], the results for the IC50 on PARP2 and on PARP1 were more than 100 µM and 8.1 nM, respectively. In addition, the “Rat Kpuu” value in series [4] stood at 1.0.

`CNC(=O)c1ccc(N2CCN(Cc3ccc4c5c(c(=O)[nH]c4c3F)CCO5)CC2)c(F)n1` [Example 9, 6-fluoro-5-[4-({6-fluoro-4-oxo-2H,3H,5H-furo[3,2-c]quinolin-7-yl}methyl)piperazin-1-yl]-N-methylpyridine-2-carboxamide]: the “HLM Clh” value in series [1] is listed as less than 4 mL/min/kg. In series [2], the Papp A→B at 2 h, 5 μM came out at 20.5 ×10⁻⁶ cm/s and the Papp B→A at 2 h, 5 μM is 28.1 ×10⁻⁶ cm/s. The “HHEP Clh” value in series [3] is reported as less than 3.3 mL/min/kg. In addition, in series [4], the “Rat Kpuu” value turned out to be 0.65.

Take `[2H]C([2H])(c1ccc2c3c(c(=O)[nH]c2c1F)CCO3)N1CCN(c2ccc(C(=O)NC)nc2F)CC1` [Example 24]: the “Rat Kpuu” value in series [4] was 0.81.
